Experimental data taken from patent US12227495B2, “Herbicidal compounds” (SYNGENTA CROP PROTECTION AG, priority 2018, dated 2025).

How the values were obtained:
Assay type in all cases: in vivo
[1] = test system: Ipomoea hederacea (IPOHE); assay: Post-emergence herbicide test, glasshouse, percentage damage; conditions: 500 g/ha, evaluated after 13 days
Description: (§1) Seeds of a variety of test species are sown in standard soil in pots (Lolium perenne (LOLPE), Solanum nigrum (SOLNI), Amaranthus retoflexus (AMARE), Setaria faberi (SETFA), Echinochloa crus-galli (ECHCG), Ipomoea hederacea (IPOHE)). After cultivation for one day (pre-emergence) or after 8 days cultivation (post-emergence) under controlled conditions in a glasshouse (at 24/16° C., day/night; 14 hours light; 65% humidity), the plants are sprayed with an aqueous spray solution derived from the formulation of the technical active ingredient in acetone/water (50:50) solution containing 0.5% Tween 20 (polyoxyethelyene sorbitan monolaurate, CAS RN 9005-64-5). Compounds are applied at 500 g/ha unless otherwise stated. The test plants are then grown in a glasshouse under controlled conditions in a glasshouse (at 24/16° C., day/night; 14 hours light; 65% humidity) and watered twice daily. After 13 days for pre and post-emergence, the test is evaluated for the percentage damage caused to the plant. The biological activities are shown in the following table on a five point scale (5=81-100%; 4=61-80%; 3=41-60%; 2=21-40%; 1=0-20%).

[2] = test system: Echinochloa crus-galli (ECHCG); assay: as above; conditions: 500 g/ha, evaluated after 13 days
Description: as §1

[3] = test system: Lolium perenne (LOLPE); assay: as above; conditions: 500 g/ha, evaluated after 13 days
Description: as §1

[4] = test system: Solanum nigrum (SOLNI); assay: as above; conditions: 500 g/ha, evaluated after 13 days
Description: as §1

[5] = test system: Setaria faberi (SETFA); assay: as above; conditions: 500 g/ha, evaluated after 13 days
Description: as §1

[6] = test system: Amaranthus retoflexus (AMARE); assay: as above; conditions: 500 g/ha, evaluated after 13 days
Description: as §1

[7] = test system: Ipomoea hederacea (IPOHE); assay: Pre-emergence herbicide test, glasshouse, percentage damage; conditions: rate 500 g/ha, evaluated after 13 days
Description: as §1

[8] = test system: Echinochloa crus-galli (ECHCG); assay: as above; conditions: rate 500 g/ha, evaluated after 13 days
Description: as §1

[9] = test system: Lolium perenne (LOLPE); assay: as above; conditions: rate 500 g/ha, evaluated after 13 days
Description: as §1

[10] = test system: Solanum nigrum (SOLNI); assay: as above; conditions: rate 500 g/ha, evaluated after 13 days
Description: as §1

[11] = test system: Setaria faberi (SETFA); assay: as above; conditions: rate 500 g/ha, evaluated after 13 days
Description: as §1

[12] = test system: Amaranthus retoflexus (AMARE); assay: as above; conditions: rate 500 g/ha, evaluated after 13 days
Description: as §1

SMILES	percentage damage caused to the plant, IPOHE [1]	percentage damage caused to the plant, ECHCG [2]	percentage damage caused to the plant, LOLPE [3]	percentage damage caused to the plant, SOLNI [4]	percentage damage caused to the plant, SETFA [5]	percentage damage caused to the plant, AMARE [6]	Pre-emergence Test IPOHE percentage damage (five point scale) [7]	Pre-emergence Test ECHCG percentage damage (five point scale) [8]	Pre-emergence Test LOLPE percentage damage (five point scale) [9]	Pre-emergence Test SOLNI percentage damage (five point scale) [10]	Pre-emergence Test SETFA percentage damage (five point scale) [11]	Pre-emergence Test AMARE percentage damage (five point scale) [12]
Fc1cc(Cl)cnc1Oc1cccc(F)c1-c1cc(C(F)F)no1 [Compound A1, 5-[2-[(5-CHLORO-3-FLUORO-2-PYRIDYL)OXY]-6-FLUORO-PHENYL]-3-(DIFLUOROMETHYL)ISOXAZOLE]	5 (5=81-100%)	5 (5=81-100%)	5 (5=81-100%)	5 (5=81-100%)	5 (5=81-100%)	5 (5=81-100%)	5 (5=81-100%)	5 (5=81-100%)	5 (5=81-100%)	5 (5=81-100%)	5 (5=81-100%)	5 (5=81-100%)
O=[N+]([O-])c1ccc(Oc2cccc(F)c2-c2cc(C(F)F)no2)nc1 [Compound A2, 3-(DIFLUOROMETHYL)-5-[2-FLUORO-6-[(5-NITRO-2-PYRIDYL)OXY]PHENYL]ISOXAZOLE]	4 (4=61-80%)	5 (5=81-100%)	5 (5=81-100%)	5 (5=81-100%)	5 (5=81-100%)	5 (5=81-100%)	2 (2=21-40%)	5 (5=81-100%)	4 (4=61-80%)	4 (4=61-80%)	5 (5=81-100%)	5 (5=81-100%)
Fc1cc(Cl)cnc1Oc1cccc(F)c1-c1ncc(C(F)(F)F)o1 [Compound A3, 2-[2-[(5-CHLORO-3-FLUORO-2-PYRIDYL)OXY]-6-FLUORO-PHENYL]-5-(TRIFLUOROMETHYL)OXAZOLE]	1 (1=0-20%)	1 (1=0-20%)	1 (1=0-20%)	3 (3=41-60%)	4 (4=61-80%)	2 (2=21-40%)	1 (1=0-20%)	3 (3=41-60%)	1 (1=0-20%)	3 (3=41-60%)	3 (3=41-60%)	3 (3=41-60%)
Fc1cccc(Oc2ncc(Cl)cc2Cl)c1-c1cc(C(F)F)no1 [Compound A4]	1 (1=0-20%)	1 (1=0-20%)	1 (1=0-20%)	5 (5=81-100%)	3 (3=41-60%)	5 (5=81-100%)	1 (1=0-20%)	2 (2=21-40%)	1 (1=0-20%)	3 (3=41-60%)	2 (2=21-40%)	3 (3=41-60%)
Fc1cccc(Oc2ccc(C(F)(F)F)cn2)c1-c1cc(C(F)F)no1 [Compound A6]	3 (3=41-60%)	5 (5=81-100%)	4 (4=61-80%)	5 (5=81-100%)	5 (5=81-100%)	4 (4=61-80%)	2 (2=21-40%)	4 (4=61-80%)	4 (4=61-80%)	5 (5=81-100%)	5 (5=81-100%)	5 (5=81-100%)
Fc1cccc(Oc2cccc(F)c2-c2cc(C(F)F)no2)n1 [Compound A7]	2 (2=21-40%)	4 (4=61-80%)	2 (2=21-40%)	5 (5=81-100%)	5 (5=81-100%)	2 (2=21-40%)	1 (1=0-20%)	4 (4=61-80%)	1 (1=0-20%)	5 (5=81-100%)	4 (4=61-80%)	5 (5=81-100%)
